Data reported in patent publication US4450269A, “Mono-5-substituted-3-chloro-4H-1,2,6-thiadiazin-4-one antifungal agents” (FMC Corporation, priority 1980, dated 1984).

What was measured:
Assay in all cases: Spore germination test
Type in all cases: cell-based
Alternaria solani = conditions: AS, 48 hours
How it was run: (§1)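 Compound was delivered in acetone into water agar at final 40, 10, 2.5 and 1 ppm. Alternaria solani and Botrytis cinerea spores were applied as sterile-water suspensions, while Erysiphe polygoni and Uromyces phaseoli spores were brushed on from infected leaves. After 48 h at 24° C., percentage germination was converted to a rating.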

Uromyces phaseoli = conditions: UP, 48 hours
How it was run: as §1

Erysiphe polygoni = conditions: EP, 48 hours
How it was run: as §1

Measured: Spore Germination Rating

O=c1c(Cl)nsnc1Oc1cccc2ccccc12 [Compound 32, 3-chloro-5(1-naphthoxy)-4H-1,2,6-thiadiazin-4-one]
2 (40-60): Erysiphe polygoni; 1.0 ppm | Erysiphe polygoni; 2.5 ppm
1 (10-40): Alternaria solani; 2.5 ppm
0 (0-10): Alternaria solani; 10 ppm | Alternaria solani; 40 ppm | Uromyces phaseoli; 2.5 ppm | Uromyces phaseoli; 10 ppm | Uromyces phaseoli; 40 ppm | Erysiphe polygoni; 10 ppm | Erysiphe polygoni; 40 ppm
3 (60-80): Alternaria solani; 1.0 ppm | Uromyces phaseoli; 1.0 ppm

O=c1c(Cl)nsnc1Oc1ccccc1Br [Compound 34, 3-chloro-5-(2-bromophenoxy)-4H-1,2,6,-thiadiazin-4-one]
0 (0-10): Alternaria solani; 10 ppm | Alternaria solani; 40 ppm | Uromyces phaseoli; 1.0 ppm | Uromyces phaseoli; 2.5 ppm | Uromyces phaseoli; 10 ppm | Uromyces phaseoli; 40 ppm | Erysiphe polygoni; 1.0 ppm | Erysiphe polygoni; 10 ppm | Erysiphe polygoni; 40 ppm
1 (10-40): Alternaria solani; 2.5 ppm
4 (80-100): Alternaria solani; 1.0 ppm
2 (40-60): Erysiphe polygoni; 2.5 ppm

O=c1c(Cl)nsnc1Oc1ccc(O)cc1 [Compound 35, 3-chloro-5-(4-hydroxyphenoxy)-4H-1,2,6-thiadiazin-4-one]
3 (60-80): Alternaria solani; 10 ppm
2 (40-60): Erysiphe polygoni; 10 ppm
0 (0-10): Alternaria solani; 40 ppm | Uromyces phaseoli; 1.0 ppm | Uromyces phaseoli; 2.5 ppm | Uromyces phaseoli; 10 ppm | Uromyces phaseoli; 40 ppm
1 (10-40): Erysiphe polygoni; 40 ppm
4 (80-100): Alternaria solani; 1.0 ppm | Alternaria solani; 2.5 ppm | Erysiphe polygoni; 1.0 ppm | Erysiphe polygoni; 2.5 ppm

O=C(Nc1ccccc1)Oc1ccc(Oc2nsnc(Cl)c2=O)cc1 [Compound 37, 3-chloro-5-[4-(phenylaminocarbonyloxy)phenoxy]-4H-1,2,6,-thiadiazin-4-one]
3 (60-80): Alternaria solani; 40 ppm | Erysiphe polygoni; 40 ppm
2 (40-60): Uromyces phaseoli; 2.5 ppm
1 (10-40): Uromyces phaseoli; 10 ppm | Uromyces phaseoli; 40 ppm
4 (80-100): Alternaria solani; 1.0 ppm | Alternaria solani; 2.5 ppm | Alternaria solani; 10 ppm | Uromyces phaseoli; 1.0 ppm | Erysiphe polygoni; 1.0 ppm | Erysiphe polygoni; 2.5 ppm | Erysiphe polygoni; 10 ppm

CSc1ccc(Oc2nsnc(Cl)c2=O)cc1 [Compound 39, 3-chloro-5-[(4-methylthio)phenoxy]-4H-1,2,6,-thiadiazin-4-one]
1 (10-40): Erysiphe polygoni; 2.5 ppm
3 (60-80): Alternaria solani; 2.5 ppm
0 (0-10): Alternaria solani; 40 ppm | Uromyces phaseoli; 40 ppm | Erysiphe polygoni; 40 ppm
2 (40-60): Alternaria solani; 10 ppm | Uromyces phaseoli; 1.0 ppm | Uromyces phaseoli; 2.5 ppm | Uromyces phaseoli; 10 ppm | Erysiphe polygoni; 1.0 ppm | Erysiphe polygoni; 10 ppm
4 (80-100): Alternaria solani; 1.0 ppm

C[S+]([O-])c1ccc(Oc2nsnc(Cl)c2=O)cc1 (stereo not drawn) [Compound 40, 3-chloro-5-[(4-methylsulfinyl)phenoxy]-4H-1,2,6,-thiadiazin-4-one]
1 (10-40): Alternaria solani; 10 ppm | Uromyces phaseoli; 10 ppm | Uromyces phaseoli; 40 ppm | Erysiphe polygoni; 40 ppm
0 (0-10): Alternaria solani; 40 ppm
2 (40-60): Alternaria solani; 2.5 ppm | Uromyces phaseoli; 2.5 ppm
3 (60-80): Uromyces phaseoli; 1.0 ppm
4 (80-100): Alternaria solani; 1.0 ppm | Erysiphe polygoni; 1.0 ppm | Erysiphe polygoni; 2.5 ppm | Erysiphe polygoni; 10 ppm

CS(=O)(=O)c1ccc(Oc2nsnc(Cl)c2=O)cc1 [Compound 41, 3-chloro-5-[(4-methylsulfonyl)phenoxy]-4H--1,2,6-thiadiazin-4-one]
0 (0-10): Alternaria solani; 10 ppm | Alternaria solani; 40 ppm | Uromyces phaseoli; 10 ppm | Uromyces phaseoli; 40 ppm | Erysiphe polygoni; 40 ppm
2 (40-60): Alternaria solani; 2.5 ppm | Erysiphe polygoni; 1.0 ppm | Erysiphe polygoni; 2.5 ppm
1 (10-40): Uromyces phaseoli; 2.5 ppm | Erysiphe polygoni; 10 ppm
4 (80-100): Alternaria solani; 1.0 ppm | Uromyces phaseoli; 1.0 ppm

CC(=O)Nc1cccc(Oc2nsnc(Cl)c2=O)c1 [Compound 42, 3-[(3-N--acetylamino)-phenoxy]-5-chloro-4H--1,2,6-thiadiazin-4-one]
0 (0-10): Uromyces phaseoli; 40 ppm
3 (60-80): Uromyces phaseoli; 2.5 ppm
4 (80-100): Alternaria solani; 1.0 ppm | Alternaria solani; 2.5 ppm | Alternaria solani; 10 ppm | Uromyces phaseoli; 1.0 ppm | Erysiphe polygoni; 1.0 ppm | Erysiphe polygoni; 2.5 ppm | Erysiphe polygoni; 10 ppm | Erysiphe polygoni; 40 ppm
2 (40-60): Alternaria solani; 40 ppm
1 (10-40): Uromyces phaseoli; 10 ppm

CC(=O)Nc1ccccc1Oc1nsnc(Cl)c1=O [Compound 43, 3-[(2-acetylamino)-phenoxy]-5-chloro-4H--1,2,6-thiadiazin-4-one]
4 (80-100): Alternaria solani; 1.0 ppm | Alternaria solani; 2.5 ppm | Alternaria solani; 10 ppm | Uromyces phaseoli; 1.0 ppm | Uromyces phaseoli; 2.5 ppm | Uromyces phaseoli; 10 ppm | Uromyces phaseoli; 40 ppm | Erysiphe polygoni; 1.0 ppm | Erysiphe polygoni; 2.5 ppm | Erysiphe polygoni; 10 ppm
1 (10-40): Erysiphe polygoni; 40 ppm
3 (60-80): Alternaria solani; 40 ppm

O=c1c(Cl)nsnc1Oc1cccc(C(F)(F)F)c1 [Compound 44, 3-chloro-5-[(3-trifluoromethyl)phenoxy]-4H--1,2,6-thiadiazin-4-one]
0 (0-10): Alternaria solani; 10 ppm | Alternaria solani; 40 ppm | Uromyces phaseoli; 2.5 ppm | Uromyces phaseoli; 10 ppm | Uromyces phaseoli; 40 ppm | Erysiphe polygoni; 10 ppm | Erysiphe polygoni; 40 ppm
3 (60-80): Erysiphe polygoni; 1.0 ppm
1 (10-40): Alternaria solani; 2.5 ppm | Uromyces phaseoli; 1.0 ppm | Erysiphe polygoni; 2.5 ppm
4 (80-100): Alternaria solani; 1.0 ppm

O=C(O)Cc1ccccc1Oc1nsnc(Cl)c1=O [Compound 45, 3-(2-carboxymethylphenoxy)-5-chloro-4H--1,2,6-thiadiazin-4-one]
4 (80-100): Alternaria solani; 1.0 ppm | Alternaria solani; 2.5 ppm | Alternaria solani; 10 ppm | Uromyces phaseoli; 1.0 ppm | Uromyces phaseoli; 2.5 ppm | Uromyces phaseoli; 10 ppm | Erysiphe polygoni; 1.0 ppm | Erysiphe polygoni; 2.5 ppm | Erysiphe polygoni; 10 ppm
2 (40-60): Alternaria solani; 40 ppm | Uromyces phaseoli; 40 ppm | Erysiphe polygoni; 40 ppm

N#CCc1ccc(Oc2nsnc(Cl)c2=O)cc1 [Compound 46, 3-chloro-5-[(4-cyanomethyl)-phenoxy]4H--1,2,6-thiadiazin-4-one]
2 (40-60): Alternaria solani; 2.5 ppm | Alternaria solani; 10 ppm
4 (80-100): Alternaria solani; 1.0 ppm | Erysiphe polygoni; 1.0 ppm | Erysiphe polygoni; 2.5 ppm | Erysiphe polygoni; 10 ppm | Erysiphe polygoni; 40 ppm
1 (10-40): Uromyces phaseoli; 1.0 ppm
0 (0-10): Alternaria solani; 40 ppm | Uromyces phaseoli; 2.5 ppm | Uromyces phaseoli; 10 ppm | Uromyces phaseoli; 40 ppm

CC(=O)c1ccc(Oc2nsnc(Cl)c2=O)cc1 [Compound 47, 3-(4-acetylphenoxy)-5-chloro-4H--1,2,6-thiadiazin-4-one]
4 (80-100): Erysiphe polygoni; 1.0 ppm | Erysiphe polygoni; 2.5 ppm | Erysiphe polygoni; 10 ppm
0 (0-10): Alternaria solani; 2.5 ppm | Alternaria solani; 10 ppm | Alternaria solani; 40 ppm | Uromyces phaseoli; 1.0 ppm | Uromyces phaseoli; 2.5 ppm | Uromyces phaseoli; 10 ppm | Uromyces phaseoli; 40 ppm
2 (40-60): Alternaria solani; 1.0 ppm
1 (10-40): Erysiphe polygoni; 40 ppm

CC(=O)c1cccc(Oc2nsnc(Cl)c2=O)c1 [Compound 48, 3-(3-acetylphenoxy)-5-chloro-4H--1,2,6-thiadiazin-4-one]
0 (0-10): Alternaria solani; 10 ppm | Alternaria solani; 40 ppm | Uromyces phaseoli; 1.0 ppm | Uromyces phaseoli; 2.5 ppm | Uromyces phaseoli; 10 ppm | Uromyces phaseoli; 40 ppm
4 (80-100): Alternaria solani; 1.0 ppm | Erysiphe polygoni; 1.0 ppm | Erysiphe polygoni; 2.5 ppm
2 (40-60): Erysiphe polygoni; 10 ppm | Erysiphe polygoni; 40 ppm
3 (60-80): Alternaria solani; 2.5 ppm

CC(=O)c1ccccc1Oc1nsnc(Cl)c1=O [Compound 49, 3-(2-acetylphenoxy)-5-chloro-4H--1,2,6-thiadiazin-4-one]
2 (40-60): Alternaria solani; 10 ppm | Erysiphe polygoni; 10 ppm | Erysiphe polygoni; 40 ppm
1 (10-40): Uromyces phaseoli; 2.5 ppm
0 (0-10): Alternaria solani; 40 ppm | Uromyces phaseoli; 10 ppm | Uromyces phaseoli; 40 ppm
4 (80-100): Alternaria solani; 1.0 ppm | Uromyces phaseoli; 1.0 ppm | Erysiphe polygoni; 1.0 ppm | Erysiphe polygoni; 2.5 ppm
3 (60-80): Alternaria solani; 2.5 ppm

O=C(O)c1ccc(Oc2nsnc(Cl)c2=O)cc1 [Compound 50, 3-(4-carboxyphenoxy)-5-chloro-4H--1,2,6-thiadiazin-4-one]
2 (40-60): Uromyces phaseoli; 10 ppm | Erysiphe polygoni; 40 ppm
4 (80-100): Alternaria solani; 1.0 ppm | Alternaria solani; 2.5 ppm | Alternaria solani; 10 ppm | Alternaria solani; 40 ppm | Uromyces phaseoli; 1.0 ppm | Uromyces phaseoli; 2.5 ppm | Erysiphe polygoni; 1.0 ppm | Erysiphe polygoni; 2.5 ppm | Erysiphe polygoni; 10 ppm
0 (0-10): Uromyces phaseoli; 40 ppm

COc1ccc(Cl)c(Oc2nsnc(Cl)c2=O)c1 [Compound 51, 3-chloro-5-[(2-chloro-5-methoxy)phenoxy]-4H--1,2,6-thiadiazin-4-one]
0 (0-10): Alternaria solani; 40 ppm | Uromyces phaseoli; 1.0 ppm | Uromyces phaseoli; 2.5 ppm | Uromyces phaseoli; 10 ppm | Uromyces phaseoli; 40 ppm | Erysiphe polygoni; 10 ppm | Erysiphe polygoni; 40 ppm
1 (10-40): Alternaria solani; 10 ppm
4 (80-100): Alternaria solani; 1.0 ppm | Alternaria solani; 2.5 ppm | Erysiphe polygoni; 1.0 ppm | Erysiphe polygoni; 2.5 ppm
